The target of assay [1] is T1, TBK1 (Homo sapiens (Human), UniProt Q9UHD2). The assay can be described thus: In vitro TBK1 degradation assay, MDA MB 231 cells (compounds 34-57), immunoblot. Type of assay: cell-based. To be noted: 1 uM compound, 16 h, read-out: % TBK1 remaining at 1 uM Cmpd. Here is the method:
MDA MB 231 cells were purchased from ATCC and cultured in RPMI-1640 (Gibco), supplemented with 10% FBS (Gibco). PROTAC treatments were carried out in 24-well plates for 16 h. Cells were harvested, and lysed in RIPA buffer (50 mM Tris pH8, 150 mM NaCl, 1% Tx-100, 0.1% SDS, 0.5% Sodium Deoxycholate) supplemented with protease and phosphatase inhibitors. Lysates were clarified at 16,000 g for 10 minutes, and supernatants were separated by SDS-PAGE. Immunoblotting was performed using standard protocols. The antibodies used were TBK1 (Cell Signaling#3504) and GAPDH (Cell Signaling#5174).
For orientation: Immunoblotting shows a protein as a band on a membrane.

In assay [2] the target is T1, TBK1. The assay can be described thus: In vitro TBK1 degradation assay, Panc02.13 cells (compounds 3-33), immunoblot. Type of assay: cell-based. To be noted: TBK1 degradation, Panc02.13 cells, 16 h, mean of ≥ 2 determinations; for DC50: read-out: DC50 (concentration at which 50% degradation is observed). Here is the method:
In vitro degradation assay protocol for compounds 3-33: Panc02.13 cells were purchased from ATCC and cultured in RPMI-1640 (Gibco), supplemented with 15% FBS (ATCC) and 10 Units/mL human recombinant insulin (Gibco). PROTAC treatments were carried out in 12-well plates for 16 h. TLR3 agonist Poly I:C (Invivogen; tlr1-pic) was added for the final 3 h. Cells were harvested, and lysed in RIPA buffer (50 mM Tris pH8, 150 mM NaCl, 1% Tx-100, 0.1% SDS, 0.5% Sodium Deoxycholate) supplemented with protease and phosphatase inhibitors. Lysates were clarified at 16,000 g for 10 minutes, and supernatants were separated by SDS-PAGE. Immunoblotting was performed using standard protocols. The antibodies used were TBK1 (Cell Signaling#3504), pIRF3 (abcam#ab76493), and GAPDH (Cell Signaling#5174).

T1 sequence (Q9UHD2 whole entry): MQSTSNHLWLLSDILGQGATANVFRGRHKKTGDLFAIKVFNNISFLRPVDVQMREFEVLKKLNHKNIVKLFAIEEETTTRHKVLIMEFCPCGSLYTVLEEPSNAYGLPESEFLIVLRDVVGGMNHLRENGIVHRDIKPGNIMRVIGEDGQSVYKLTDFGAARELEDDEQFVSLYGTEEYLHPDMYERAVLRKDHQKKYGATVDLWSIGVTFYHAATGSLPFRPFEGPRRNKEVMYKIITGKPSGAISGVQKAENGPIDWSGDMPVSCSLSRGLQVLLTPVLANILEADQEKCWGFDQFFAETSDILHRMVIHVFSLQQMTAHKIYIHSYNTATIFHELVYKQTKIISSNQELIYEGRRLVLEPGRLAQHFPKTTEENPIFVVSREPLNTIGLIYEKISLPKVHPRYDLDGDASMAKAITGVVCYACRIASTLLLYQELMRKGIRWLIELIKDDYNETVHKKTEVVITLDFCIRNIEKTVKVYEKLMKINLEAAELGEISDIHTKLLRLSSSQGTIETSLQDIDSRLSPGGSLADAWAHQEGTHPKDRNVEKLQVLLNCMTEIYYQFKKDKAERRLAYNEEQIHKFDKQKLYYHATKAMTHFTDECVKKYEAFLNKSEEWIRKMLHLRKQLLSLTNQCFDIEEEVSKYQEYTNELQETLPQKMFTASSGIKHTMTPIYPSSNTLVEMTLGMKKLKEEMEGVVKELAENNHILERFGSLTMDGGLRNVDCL

As for `Cc1ncsc1-c1ccc(CNC(=O)[C@@H]2C[C@@H](O)CN2C(=O)[C@H](C(C)C)N2Cc3ccccc3C2=O)c(OCCOCCOCCCOCCOCCOc2ccc(Nc3ncc(Br)c(NCCCN(C)C(=O)C4CCC4)n3)cc2)c1` [Compound 42], the remaining activity at 1 µM in assay [1] was in the range of 41 to 80%.

Turning to `Cc1ncsc1-c1ccc(CNC(=O)[C@@H]2C[C@@H](O)CN2C(=O)[C@@H](NC(=O)COCCOCCOCCCCOc2ccc(Nc3ncc(Br)c(NCCCN(C)C(=O)C4CCC4)n3)cc2)C(C)(C)C)cc1` [Compound 9], in assay [2], the “Dmax (maximal degradation observed)” value is recorded as 86% and the DC50 was determined as 71 nM.

`Cc1ncsc1-c1ccc(CNC(=O)[C@@H]2C[C@@H](O)CN2C(=O)[C@H](C(C)C)N2Cc3ccccc3C2=O)c(OCCOCCOCCOCCOCCOc2ccc(Nc3ncc(Br)c(NCCCN(C)C(=O)C4CCC4)n3)cc2)c1` [Compound 38]: in assay [1], the remaining activity at 1 µM was at least 81%.

Take `CCc1cnc(Nc2cccc(OCCCOCCCCOCCCOCC(=O)N[C@H](C(=O)N3C[C@H](O)C[C@H]3C(=O)NCc3ccc(-c4scnc4C)cc3)C(C)(C)C)c2)nc1NCCCN(C)C(=O)C1CCC1` [Compound 52]: the remaining activity at 1 µM in assay [1] was at least 81%.

For the compound `Cc1ncsc1-c1ccc(CNC(=O)[C@@H]2C[C@@H](O)CN2C(=O)[C@H](C(C)C)N2Cc3ccccc3C2=O)c(OCCOCCOCCCCOCCOCCOc2ccc(Nc3ncc(Br)c(NCCCN(C)C(=O)C4CCC4)n3)cc2)c1` [Compound 45], the remaining activity at 1 µM in assay [1] lay within 41 to 80%.

In the case of `Cc1ncsc1-c1ccc(CNC(=O)[C@@H]2C[C@@H](O)CN2C(=O)[C@@H](NC(=O)COCCOCCCCOCCCCOCCOCCOc2ccc(Nc3ncc(Br)c(NCCCN(C)C(=O)C4CCC4)n3)cc2)C(C)(C)C)cc1` [Compound 17], in assay [2], the “Dmax (maximal degradation observed)” value amounted to 96% and the DC50 turned out to be 3 nM.

As to `Cc1cnc(Nc2cccc(OCCCOCCCCOCCCOCC(=O)N[C@H](C(=O)N3C[C@H](O)C[C@H]3C(=O)NCc3ccc(-c4scnc4C)cc3)C(C)(C)C)c2)nc1NCCCN(C)C(=O)C1CCC1` [Compound 50], the remaining activity at 1 µM in assay [1] is at least 81%.

For the compound `Cc1ncsc1-c1ccc(CNC(=O)[C@@H]2C[C@@H](O)CN2C(=O)[C@H](C(C)C)N2Cc3ccccc3C2=O)c(OCCCOCCCOCCOCCCOCCCOc2ccc(Nc3ncc(Br)c(NCCCN(C)C(=O)C4CCC4)n3)cc2)c1` [Compound 48], in assay [1], the remaining activity at 1 µM is 0 to 40%.

As to `Cc1ncsc1-c1ccc(CNC(=O)[C@@H]2C[C@@H](O)CN2C(=O)[C@@H](NC(=O)CCCCCOCCOc2ccc(Nc3ncc(Br)c(NCCCN(C)C(=O)C4CCC4)n3)cc2)C(C)(C)C)cc1` [Compound 5], the DC50 in assay [2] was over 1000 nM.

`Cc1ncsc1-c1ccc(CNC(=O)[C@@H]2C[C@@H](O)CN2C(=O)[C@@H](NC(=O)CCOCCCOCCCOCCCOCCCOc2ccc(Nc3ncc(Br)c(NCCCN(C)C(=O)C4CCC4)n3)cc2)C(C)(C)C)cc1` [Compound 15]: in assay [2], the “Dmax (maximal degradation observed)” value is 96% and the DC50 was 25 nM.

Consider `Cc1ncsc1-c1ccc(CNC(=O)[C@@H]2C[C@@H](O)CN2C(=O)[C@@H](NC(=O)COCCCOCCCCCOc2ccc(Nc3ncc(Br)c(NCCCN(C)C(=O)C4CCC4)n3)cc2)C(C)(C)C)cc1` [Compound 8], for which, in assay [2], the “Dmax (maximal degradation observed)” value turned out to be 79% and the DC50 turned out to be 88 nM.

On to `Cc1ncsc1-c1ccc(CNC(=O)[C@@H]2C[C@@H](O)CN2C(=O)[C@H](C(C)C)N2Cc3ccccc3C2=O)c(OCCCCOCCCCOc2ccc(Nc3ncc(Br)c(NCCCN(C)C(=O)C4CCC4)n3)cc2)c1` [Compound 40], for which the remaining activity at 1 µM in assay [1] is at least 81%.

`Cc1ncsc1-c1ccc(CNC(=O)[C@@H]2C[C@@H](O)CN2C(=O)[C@H](C(C)C)N2Cc3ccccc3C2=O)c(OCCCOCCCCOCCCOc2ccc(Nc3ncc(Br)c(NCCCN(C)C(=O)C4CCC4)n3)cc2)c1` [Compound 44]: in assay [1], the remaining activity at 1 µM lay in the range of 41 to 80%.

Turning to `Cc1ncsc1-c1ccc(CNC(=O)[C@@H]2C[C@@H](O)CN2C(=O)[C@H](C(C)C)N2Cc3ccccc3C2=O)c(OCCOCCCOc2ccc(Nc3ncc(Br)c(NCCCN(C)C(=O)C4CCC4)n3)cc2)c1` [Compound 43], the remaining activity at 1 µM in assay [1] is 41 to 80%.

With `Cc1ncsc1-c1ccc(CNC(=O)[C@@H]2C[C@@H](O)CN2C(=O)[C@@H](NC(=O)COCCOCCOCCOCCOCCOCCOc2ccc(Nc3ncc(Br)c(NCCCN(C)C(=O)C4CCC4)n3)cc2)C(C)(C)C)cc1` [Compound 16], in assay [2], the “Dmax (maximal degradation observed)” value is given as 96% and the DC50 is 34 nM.

For `Cc1ncsc1-c1ccc(CNC(=O)[C@@H]2C[C@@H](O)CN2C(=O)[C@@H](NC(=O)COCCOCCOCCOc2ccc(Nc3ncc(Br)c(NCCCN(C)C(=O)C4CCC4)n3)cc2)C(C)(C)C)cc1` [Compound 7], the DC50 in assay [2] is over 1000 nM.

As to `Cc1ncsc1-c1ccc(CNC(=O)[C@@H]2C[C@@H](O)CN2C(=O)[C@@H](NC(=O)COCCCOCCCCOCCCOc2cccc(Nc3ncc(C4CC4)c(NCCCN(C)C(=O)C4CCC4)n3)c2)C(C)(C)C)cc1` [Compound 51], in assay [1], the remaining activity at 1 µM is at least 81%.

Consider `Cc1ncsc1-c1ccc(CNC(=O)[C@@H]2C[C@@H](O)CN2C(=O)[C@H](C(C)C)N2Cc3ccccc3C2=O)c(OCCCCOc2ccc(Nc3ncc(Br)c(NCCCN(C)C(=O)C4CCC4)n3)cc2)c1` [Compound 39], for which, in assay [1], the remaining activity at 1 µM is at least 81%.

Take `Cc1ncsc1-c1ccc(CNC(=O)[C@@H]2C[C@@H](O)CN2C(=O)[C@H](C(C)C)N2Cc3ccccc3C2=O)c(OCCOCCOCCOCCOc2ccc(Nc3ncc(Br)c(NCCCN(C)C(=O)C4CCC4)n3)cc2)c1` [Compound 36]: the remaining activity at 1 µM in assay [1] is at least 81%.

As for `Cc1ncsc1-c1ccc(CNC(=O)[C@@H]2C[C@@H](O)CN2C(=O)[C@H](C(C)C)N2Cc3ccccc3C2=O)c(OCCOCCOCCOc2ccc(Nc3ncc(Br)c(NCCCN(C)C(=O)C4CCC4)n3)cc2)c1` [Compound 35], the remaining activity at 1 µM in assay [1] was at least 81%.

As for `C=Cc1cnc(Nc2cccc(OCCCOCCCCOCCCOCC(=O)N[C@H](C(=O)N3C[C@H](O)C[C@H]3C(=O)NCc3ccc(-c4scnc4C)cc3)C(C)(C)C)c2)nc1NCCCN(C)C(=O)C1CCC1` [Compound 54], the remaining activity at 1 µM in assay [1] lay within 41 to 80%.

As to `Cc1ncsc1-c1ccc(CNC(=O)[C@@H]2C[C@@H](O)CN2C(=O)[C@H](C(C)C)N2Cc3ccccc3C2=O)c(OCCOCCOc2ccc(Nc3ncc(Br)c(NCCCN(C)C(=O)C4CCC4)n3)cc2)c1` [Compound 34], in assay [1], the remaining activity at 1 µM is 41 to 80%.

For the compound `Cc1ncsc1-c1ccc(CNC(=O)[C@@H]2C[C@@H](O)CN2C(=O)[C@@H](NC(=O)COCCCOCCCCOCCCOc2cccc(Nc3ncc4c(n3)N(CCCN(C)C(=O)C3CCC3)CC4)c2)C(C)(C)C)cc1` [Compound 53], the remaining activity at 1 µM in assay [1] was at least 81%.

Turning to `Cc1ncsc1-c1ccc(CNC(=O)[C@@H]2C[C@@H](O)CN2C(=O)[C@H](C(C)C)N2Cc3ccccc3C2=O)c(OCCOCCOCCOCCOCCOCCOc2ccc(Nc3ncc(Br)c(NCCCN(C)C(=O)C4CCC4)n3)cc2)c1` [Compound 37], the remaining activity at 1 µM in assay [1] is at least 81%.

Regarding `Cc1ncsc1-c1ccc(CNC(=O)[C@@H]2C[C@@H](O)CN2C(=O)[C@@H](NC(=O)COCCOCCOCCOCCOc2ccc(Nc3ncc(Br)c(NCCCN(C)C(=O)C4CCC4)n3)cc2)C(C)(C)C)cc1` [Compound 10], in assay [2], the “Dmax (maximal degradation observed)” value came out at 92% and the DC50 is 103 nM.

Regarding `Cc1ncsc1-c1ccc(CNC(=O)[C@@H]2C[C@@H](O)CN2C(=O)[C@@H](NC(=O)COCCCOCCCOc2ccc(Nc3ncc(Br)c(NCCCN(C)C(=O)C4CCC4)n3)cc2)C(C)(C)C)cc1` [Compound 6], the DC50 in assay [2] was over 1000 nM.

`Cc1ncsc1-c1ccc(CNC(=O)[C@@H]2C[C@@H](O)CN2C(=O)[C@@H](NC(=O)COCCOCCCCOCCCCOCCOc2ccc(Nc3ncc(Br)c(NCCCN(C)C(=O)C4CCC4)n3)cc2)C(C)(C)C)cc1` [Compound 14]: in assay [2], the “Dmax (maximal degradation observed)” value worked out at 96% and the DC50 amounted to 6 nM.

As for `Cc1ncsc1-c1ccc(CNC(=O)[C@@H]2C[C@@H](O)CN2C(=O)[C@H](C(C)C)N2Cc3ccccc3C2=O)c(OCCCOCCCOc2ccc(Nc3ncc(Br)c(NCCCN(C)C(=O)C4CCC4)n3)cc2)c1` [Compound 41], the remaining activity at 1 µM in assay [1] is at least 81%.

With `Cc1ncsc1-c1ccc(CNC(=O)[C@@H]2C[C@@H](O)CN2C(=O)[C@@H](NC(=O)CCCCCOCCCCOCCCCOc2ccc(Nc3ncc(Br)c(NCCCN(C)C(=O)C4CCC4)n3)cc2)C(C)(C)C)cc1` [Compound 12], in assay [2], the “Dmax (maximal degradation observed)” value is listed as 90% and the DC50 was 95 nM.

As to `Cc1ncsc1-c1ccc(CNC(=O)[C@@H]2C[C@@H](O)CN2C(=O)[C@@H](NC(=O)COCCOCCOCCOCCOCCOc2ccc(Nc3ncc(Br)c(NCCCN(C)C(=O)C4CCC4)n3)cc2)C(C)(C)C)cc1` [Compound 13], in assay [2], the “Dmax (maximal degradation observed)” value is listed as 96% and the DC50 stood at 29 nM.

Consider `Cc1ncsc1-c1ccc(CNC(=O)[C@@H]2C[C@@H](O)CN2C(=O)[C@H](C(C)C)N2Cc3ccccc3C2=O)c(OCCCOCCCOCCOc2ccc(Nc3ncc(Br)c(NCCCN(C)C(=O)C4CCC4)n3)cc2)c1` [Compound 46], for which the remaining activity at 1 µM in assay [1] was 41 to 80%.

The values above are taken from patent US10946017B2, “Tank-binding kinase-1 PROTACs and associated methods of use” (Arvinas Operations, Inc., priority 2015, dated 2021).
